The test has as its target T1, human recombinant ENPP1 (Homo sapiens, UniProt P22413).
T1 construct: purchased R & D systems
T1 sequence (P22413 1-925): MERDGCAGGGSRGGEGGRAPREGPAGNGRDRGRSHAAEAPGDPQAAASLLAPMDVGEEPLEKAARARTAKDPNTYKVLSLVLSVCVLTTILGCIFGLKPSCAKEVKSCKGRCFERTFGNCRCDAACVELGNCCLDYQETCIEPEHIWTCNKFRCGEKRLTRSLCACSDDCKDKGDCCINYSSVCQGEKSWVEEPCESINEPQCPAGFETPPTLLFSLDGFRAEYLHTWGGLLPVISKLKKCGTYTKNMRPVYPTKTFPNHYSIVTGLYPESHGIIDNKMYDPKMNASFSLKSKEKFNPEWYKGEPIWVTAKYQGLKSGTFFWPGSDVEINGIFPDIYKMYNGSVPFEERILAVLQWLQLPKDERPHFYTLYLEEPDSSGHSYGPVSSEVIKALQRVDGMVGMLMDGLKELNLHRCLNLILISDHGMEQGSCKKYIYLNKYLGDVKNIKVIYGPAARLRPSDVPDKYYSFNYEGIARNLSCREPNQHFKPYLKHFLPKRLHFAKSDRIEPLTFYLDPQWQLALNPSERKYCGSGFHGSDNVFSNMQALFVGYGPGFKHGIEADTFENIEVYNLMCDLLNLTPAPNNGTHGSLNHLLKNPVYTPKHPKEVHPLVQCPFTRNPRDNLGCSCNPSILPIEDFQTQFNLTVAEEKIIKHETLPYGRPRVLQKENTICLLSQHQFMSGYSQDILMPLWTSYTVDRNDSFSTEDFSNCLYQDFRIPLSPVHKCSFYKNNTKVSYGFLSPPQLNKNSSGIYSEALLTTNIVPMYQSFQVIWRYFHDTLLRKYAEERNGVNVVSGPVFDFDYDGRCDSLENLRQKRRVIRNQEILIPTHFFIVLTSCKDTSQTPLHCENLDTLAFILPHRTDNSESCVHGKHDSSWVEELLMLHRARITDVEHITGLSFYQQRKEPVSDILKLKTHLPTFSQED
Briefly: ENPP1 enzyme assay with cGAMP substrate (AMP-Glo luminescence). Format: biochemical. To be noted: human recombinant ENPP1 3 ng/reaction, cGAMP 5 μM, 37° C. 90 minutes, read-out: Enzymatic activity (ENPP1 IC50). The protocol:
ENPP1 hydrolyzes nucleotides or nucleotide derivatives to produce nucleoside -5′-monophosphate and pyrophosphate. in addition, ENPP1 hydrolyzes 2′,3′-cGAMP to produce 5′-adenosine monophosphate (AMP) and 5′-guanosine monophosphate (GMP). AMP produced from the reaction is measured using the AMP-Glo® kit (Promega). The AMP-Glo® kit contains two reagents. The first reagent terminates the AMP-producing enzymatic reaction, removes ATP and converts the produced AMP into ADP. The second reagent converts ADP to ATP which is used to generate luminescence in the luciferase reaction. The amount of luminescence measured is proportional to the amount of AMP produced by ENPP1.
The final reaction mixture contains 50 mM Tris (pH 8.5) buffer, 250 mM NaCl, 0.5 mM. CaCl2, 1 μM ZnCl2, 5% glycerol and 1% DMSO. […] The reaction was initiated by addition of cGAMP (at a final concentration of 5 μM) and reacted at 37° C. for 90 minutes. At the end of the reaction, 10 μl of the AMP-Glo first reagent was added to stop the reaction and the result was stored at room temperature for […]. After storage, 20 μl of an AMP detection solution (a mixture of AMP-Glo II reagent and Kinase-Gio at a ratio of 1:100) was added and stored at room. temperature for 1 hour. Luminescence signals were measured using a Victor® plate reader (Perkin Elmer). The maximal activity control (containing enzymes and substrates only in the presence of 1% DMSO; MAX) and the minimal activity control (containing substrates and 1% DMSO; MIN) were evaluated simultaneously. In each experiment, serially diluted reference ENPP1 inhibitors were tested together. IC50, indicating % residual activity versus compound concentration was determined by fitting inhibition curves using the 3-parameter analysis of GraphPad Prism® software. Serially diluted samples of one compound were tested two or more times and an average IC50 of each compound was calculated.

IC50 data for 31 compounds are collected here from patent publication US20230159469A1, “NOVEL PHTHALAZINE DERIVATIVE HAVING ECTONUCLOEOTIDE PYROPHOSPHATASE/PHOSPHODIESTE RASE INHIBITORY ACTIVITY, AND USE THEREOF” (TXINNO BIOSCIENCE INC., priority 2020, published 2023).

Structures can show the parent of a compound that is named as a salt. Where only a bound is given, the exact number is not on record here.

Consider `O=c1[nH]nc(-c2ccccc2)c2ccccc12` [Compound No. 1, 4-phenylphthalazin-1(2H)-one], for which the IC50 (commonly the concentration that inhibits the measured activity by half) lay within 1 to 10 µM.
`CC(C)(C)OC(=O)Nc1cccc(-c2n[nH]c(=O)c3ccccc23)c1` [Compound No. 2, tert-butyl (3-(4-oxo-3,4-dihydrophthalazin-1-yl)phenyl)carbamate]: the IC50 is above 10 µM.
With `Cn1nc(-c2cccc(NC(=O)OC(C)(C)C)c2)c2ccccc2c1=O` [Compound No. 3, tert-butyl (3(3-methyl-4-oxo-3,4-dihydrophthalazin-1-yl)phenyl)carbamate], the IC50 is above 10 µM.
With `CC(C)(C)OC(=O)Nc1cccc(-c2nn(Cc3ccccc3)c(=O)c3ccccc23)c1` [Compound No. 4, tert-butyl (3(3-benzyl-4-oxo-3,4-dihydrophthalazin-1-yl)phenyl)carbamate], the IC50 is above 10 µM.
`CC(C)(C)OC(=O)NCc1cccc(-c2n[nH]c(=O)c3ccccc23)c1` [Compound No. 5]: the half-inhibitory concentration (IC50) was above 10 µM.
In the case of `Cn1nc(-c2cccc(CNC(=O)OC(C)(C)C)c2)c2ccccc2c1=O` [Compound No. 6, tert-butyl 3-(3-methyl-4-oxo-3,4-dihydrophthalazin-1-yl) benzyl carbamate], the IC50 was above 10 µM.
As for `Cn1nc(-c2ccc(CNC(=O)OC(C)(C)C)cc2)c2ccccc2c1=O` [Compound No. 9], the IC50 is above 10 µM.
Consider `CCn1nc(-c2ccc(CNC(=O)OC(C)(C)C)cc2)c2ccccc2c1=O` [Compound No. 10, tert-butyl (4-(3-ethyl-4-oxo-3,4-dihydrophthalazin-1-yl)benzyl)carbamate], for which the IC50 is above 10 µM.
As for `CC(C)(C)OC(=O)NCc1ccc(-c2nn(-c3ccccc3)c(=O)c3ccccc23)cc1` [Compound No. 12, tert-butyl (4-(4-oxo-3-phenyl-3,4-dihydrophthalazin-1-yl)benzyl)carbamate], the IC50 is above 10 µM.
To `CC(C)(C)OC(=O)NCc1ccc(-c2nn(Cc3ccccc3)c(=O)c3ccccc23)cc1` [Compound No. 13] belongs above 10 µM.
Regarding `CC(C)(C)OC(=O)NCc1ccc(-c2nn(Cc3ccc(F)cc3)c(=O)c3ccccc23)cc1` [Compound No. 14, tert-butyl (4-(3-(4-fluorobenzyl)-4-oxo-3,4-dihydrophthalazin-1-yl)benzyl)carbamate], the IC50 is above 10 µM.
Regarding `COc1ccc2c(=O)[nH]nc(-c3ccc(CNC(=O)OC(C)(C)C)cc3)c2c1` [Compound No. 15, tert-butyl (4-(7-methoxy-4-oxo-3,4-dihydrophthalazin-1-yl)benzyl)carbamate], the IC50 is above 10 µM.
To `COc1ccc2c(-c3ccc(CNC(=O)OC(C)(C)C)cc3)nn(C)c(=O)c2c1` [Compound No. 18, tert-butyl (4-(6-methoxy-3-methyl-4-oxo-3,4-dihydrophthalazin-1-yl)benzyl)carbamate] belongs above 10 µM; to `COc1cc2c(-c3ccc(CNC(=O)OC(C)(C)C)cc3)nn(C)c(=O)c2cc1OC` [Compound No. 20, tert-butyl (4-(6,7-dimethoxy-3-methyl-4-oxo-3,4-dihydrophthalazin-1-yl)benzyl)carbamate], above 10 µM; to `CC(C)(C)OC(=O)NCc1ccc(-c2n[nH]c(=O)c3ccccc23)cc1C(F)(F)F` [Compound No. 24, tert-butyl 4-(4-oxo-3,4-dihydrophthalazin-1-yl)-2-(trifluoromethyl)benzyl carbamate], above 10 µM.
`CC(C)(C)OC(=O)N1CCc2cc(-c3n[nH]c(=O)c4ccccc34)ccc2C1` [Compound No. 26, tert-butyl 6-(4-oxo-3,4-dihydrophthalazin-1-yl)-3,4-dihydroisoquinoline-2(1H)-carboxylate]: the IC50 is above 10 µM.
Turning to `Cn1nc(-c2ccc3c(c2)CCN(C(=O)OC(C)(C)C)C3)c2ccccc2c1=O` [Compound No. 27, tert-butyl-6-(3-methyl-4-oxo-3,4-dihydrophthalazin-1-yl)-3,4-dihydroisoquinoline-2(1H)-carboxylate], the IC50 is above 10 µM.
In the case of `COc1cc2c(-c3ccc4c(c3)CCN(C(=O)OC(C)(C)C)C4)n[nH]c(=O)c2cc1OC` [Compound No. 28, tert-butyl 6-(6,7-dimethoxy-4-oxo-3,4-dihydrophthalazin-1-yl)-3,4-dihydroisoquinoline-2(1H)-carboxylate], the IC50 was above 10 µM.
Regarding `COc1cc2c(-c3ccc4c(c3)CCN(C(=O)OC(C)(C)C)C4)nn(C)c(=O)c2cc1OC` [Compound No. 29, tert-butyl-6-(6,7-dimethoxy-3-methyl-4-oxo-3,4-dihydrophthalazin-1-yl)-3,4-dihydroisoquinoline-2(1H)-carboxylate], the IC50 is above 10 µM.
Take `Nc1cccc(-c2n[nH]c(=O)c3ccccc23)c1` [Compound No. 30, 4-(3-aminophenyl)phthalazin-1(2H)-one hydrochloride]: the IC50 was above 10 µM.
Consider `Cn1nc(-c2cccc(N)c2)c2ccccc2c1=O` [Compound No. 31, 4-(3-aminophenyl)-2-methylphthalazin-1(2H)-one hydrochloride], for which the IC50 was above 10 µM.
Regarding `Nc1cccc(-c2nn(Cc3ccccc3)c(=O)c3ccccc23)c1` [Compound No. 32, 4-(3-aminophenyl)-2-benzylphthalazin-1(2H)-one hydrochloride], the IC50 is above 10 µM.
Turning to `NCc1cccc(-c2n[nH]c(=O)c3ccccc23)c1` [Compound No. 33, 4-(3-(aminomethyl)phenyl)phthalazin-1(2H)-one hydrochloride], the IC50 was above 10 µM.
Take `NCc1cccc(-c2nn(Cc3ccccc3)c(=O)c3ccccc23)c1` [Compound No. 35, 4-(3-(aminomethyl)phenyl)-2-benzylphthalazin-1(2H)-one hydrochloride]: the IC50 is above 10 µM.
Consider `Cn1nc(-c2ccc(CN)cc2)c2ccccc2c1=O` [Compound No. 37, 4-(4-aminomethyl)phenyl)-2-methylphthalazin-1(2H)-one hydrochloride], for which the IC50 was below 1 µM.
`CCn1nc(-c2ccc(CN)cc2)c2ccccc2c1=O` [Compound No. 38, 4-(4-(aminomethyl)phenyl)-2-ethylphthalazin-1(2H)-one hydrochloride]: the IC50 was below 1 µM.
Take `CC(C)n1nc(-c2ccc(CN)cc2)c2ccccc2c1=O` [Compound No. 39, 4-(4-(aminomethyl)phenyl)-2-isopropylphthalazin-1-(2H)-one hydrochloride]: the IC50 was above 10 µM.
Consider `NCc1ccc(-c2nn(-c3ccccc3)c(=O)c3ccccc23)cc1` [Compound No. 40, 4-(4-aminomethyl)phenyl)-2-phenylphthalazin-1(2H)-one hydrochloride], for which the IC50 lay in the range of 1 to 10 µM.
The figure for `NCc1ccc(-c2nn(Cc3ccccc3)c(=O)c3ccccc23)cc1` [Compound No. 41, 4-(4-aminomethyl)phenyl)-2-benzylphthalazin-1(2H)-one hydrochloride] is 1 to 10 µM; for `NCc1ccc(-c2nn(Cc3ccc(F)cc3)c(=O)c3ccccc23)cc1` [Compound No. 42, 4-(4-(aminomethyl)phenyl)-2-(4-fluorobenzyl)phthalazin-1(2H)-one hydrochloride] it is 1 to 10 µM; for `COc1ccc2c(=O)[nH]nc(-c3ccc(CN)cc3)c2c1` [Compound No. 43, 4-(4-(aminomethyl)phenyl)-6-methoxyphthalazin-1(2H)-one hydrochloride] it is below 1 µM.
